According to ChEMBL document CHEMBL1759928, “Synthesis and evaluation of library of betulin derivatives against the botulinum neurotoxin A protease” (Bioorg Med Chem Lett, 2011):
The source made the active and inactive calls. The calls are words filed in the database; no cut-off is given here.

Experiments:
[1] = molecular target: Botulinum neurotoxin type A (Clostridium botulinum, UniProt P0DPI0); test: Inhibition of Clostridium BoNT/A protease light chain
[2] = molecular target: Botulinum neurotoxin type A (Clostridium botulinum) (UniProt P0DPI0); details: 0.67 to 18 uM
Sequence of Botulinum neurotoxin type A (Clostridium botulinum) (P0DPI0 2-448 limits assumed): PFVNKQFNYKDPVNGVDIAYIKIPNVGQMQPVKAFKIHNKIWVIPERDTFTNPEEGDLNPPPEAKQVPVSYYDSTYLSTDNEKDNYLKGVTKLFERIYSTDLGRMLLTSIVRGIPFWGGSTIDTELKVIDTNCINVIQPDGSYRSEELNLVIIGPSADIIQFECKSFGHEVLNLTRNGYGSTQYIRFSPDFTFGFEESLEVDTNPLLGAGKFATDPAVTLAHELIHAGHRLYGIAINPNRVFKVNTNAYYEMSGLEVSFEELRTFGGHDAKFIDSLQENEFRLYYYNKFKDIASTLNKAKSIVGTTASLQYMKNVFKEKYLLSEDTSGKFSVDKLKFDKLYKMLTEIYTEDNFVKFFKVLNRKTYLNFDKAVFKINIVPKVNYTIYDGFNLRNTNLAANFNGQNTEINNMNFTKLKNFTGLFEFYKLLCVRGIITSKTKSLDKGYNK

Sequence of Botulinum neurotoxin type A (P0DPI0 2-448 limits assumed): as above

Compound	IC50 [1]	Ki [1]	inhibition [2]
C=C(C)[C@@H]1CC[C@]2(C(=O)O)CC[C@]3(C)[C@H](CC[C@@H]4[C@@]5(C)CC[C@H](O)C(C)(C)[C@@H]5CC[C@]43C)[C@@H]12 [BETULINIC ACID]	20 µM	14.3 µM	–
C=C(C)[C@@H]1CC[C@]2(COC(=O)COc3cc(C(C)C)ccc3C)CC[C@]3(C)[C@H](CC[C@@H]4[C@@]5(C)CC[C@H](O)C(C)(C)[C@@H]5CC[C@]43C)[C@@H]12	10 µM	13.3 µM	–
C=C(C)[C@@H]1CC[C@]2(COC(=O)CCC(=O)O)CC[C@]3(C)[C@H](CC[C@@H]4[C@@]5(C)CC[C@H](O)C(C)(C)[C@@H]5CC[C@]43C)[C@@H]12	1.5 µM	0.8 µM	Active
C=C(C)[C@@H]1CC[C@]2(C(=O)OC)CC[C@]3(C)[C@H](CC[C@@H]4[C@@]5(C)CC[C@H](O)C(C)(C)[C@@H]5CC[C@]43C)[C@@H]12 [METHYL BETULINATE]	< 100 µM	–	–
C=C(C)[C@@H]1CC[C@]2(C(=O)O)CC[C@]3(C)[C@H](CC[C@@H]4[C@@]5(C)CCC(=O)C(C)(C)[C@@H]5CC[C@]43C)[C@@H]12 [BETUNOLIC ACID]	< 100 µM	–	–
